Experimental data taken from patent publication US20220227735A1, “THERAPEUTIC METHODS AND COMPOUNDS” (RUTGERS, THE STATE UNIVERSITY OF NEW JERSEY, priority 2019, published 2022).
Like-named read-outs stand apart in the source and are kept apart here.

Columns and labels:
human PKG (hPKG) = assay: Human PKG IMAP fluorescence polarization kinase assay; assay type: biochemical; settings: compound at 10 μm; recombinant hPKG, 10 uM ATP, 1 uM cGMP, FAM-IP3R substrate
From the text: Human PKG, cloned into a pENTR221 vector, was obtained from DNASU.org. (HsCD00351766). It was cloned into a mammalian expression plasmid, Gateway pDEST27 (Invitrogen) for expression as a GST fusion protein, using LR Clonase II Plus enzyme (Invitrogen). The hPKG-pDEST27 plasmid was amplified in DH5a Max Efficiency Competent Cells and purified with a PureYield Plasmid Midiprep System (Promega) following the manufactures protocol. Expi293 cells were transfected with hPKG-pDEST27 using the Expifectamine 293 Transfection Kit (Gibco). After 18 hours, enhancing reagent (Gibco) was added. Cells were then collected 48 hours post-enhancing, centrifuged at 2000×g for 10 min, washed in ice cold PBS and frozen as a pellet at −80° C. until protein purification. The cell pellet was lysed with Mammalian Protein Extraction Reagent (Thermo Fisher) for 10-15 minutes. The lysate was centrifuged at 21,000×g for 15 minutes at 4° C. The supernatant was incubated for 1 h at 4° C. with glutathione resin that was pre-washed 10 times with ice cold Wash Buffer (50 mM Hepes pH 7.8, 120 mM KCl, 20 mM NaCl, 10% glycerol). The resin was loaded onto a column and washed with resin wash buffer by gravity flow until no more protein was detectable in the washes by Bradford assay. Protein was eluted with 10 mg/ml glutathione in Wash buffer. The protein was concentrated using a 30K MWCO Corning Spin X concentrator and assayed for activity as described above.
(§1) Plasmodium falciparum PKG (PfPKG) and human PKG (hPKG) kinase activity was assayed using a commercial immobilized metal ion affinity-based fluorescence polarization (IMAP) assay according to the manufactures protocol (Molecular Devices). Briefly, kinase assays (20 μl in black half volume 96 well microtiter plates) contained; 10 mM Tris-HCl, pH 7.2, 10 mM MgCl2, 0.05% NaN3, 0.01% Tween® 20, 10 uM ATP, 1 uM cGMP and 21 ng of recombinant enzyme per well. Compounds were preincubated with enzyme at 25° C. for 15 minutes and reactions were initiated with addition of 120 nM fluorescent peptide substrates, FAM-PKAtide for PfPKG and FAM-IP3R for hPKG (Molecular Devices). Fluorescent polarization was measured using a Synergy 2 Microplate reader (BioTek, Winooski, Vt.). Fluorescent polarization was read in parallel and perpendicular with an excitation wavelength of 485 nm and an emission wavelength of 528 nm. IC50 data were analyzed using a four parameter logistic curve fit using Microsoft Excel Solver.

[1] = target: T1, Plasmodium falciparum PKG (PfPKG) (Plasmodium falciparum, UniProt Q8I719); assay: PfPKG IMAP fluorescence polarization kinase assay; assay type: biochemical
T1 construct: Full length PfPKG was cloned into the pTrcHisC vector for expression in BL21 (DE3) Star cells; His tag (pTrcHisC vector) (N); made in house; host or cells: E. coli BL21 (DE3) Star
Method: Full length PfPKG was cloned into the pTrcHisC vector for expression in BL21 (DE3) Star cells. An LB culture containing 50 ug/ml carbenicillin (250 mL) was grown overnight at 37° C. The following day the culture was cooled on ice for about 10-15 minutes and divided equally into two new 125 mL cultures. 125 ml of fresh LB broth containing carbenicillin was added to each flask bringing the volume of each flask to 250 ml. Cultures were shaken at 18° C. before induction with IPTG (1.0 mM) for 18-24 h. The bacterial pellet was frozen at −80° C. until protein purification. Cells were lysed with Bacterial Protein Extraction Reagent (Thermo Scientific) on ice for 10-15 min. Supernatant was obtained after centrifugation of lysate at 21,000×g for 15 min at 4° C. Supernatant was incubated for 30 minutes at 4° C. with rotation with HisPur Cobalt Resin (Thermo Scientific), pre-washed with Wash Buffer (50 mM Hepes pH 7.8, 120 mM KCl, 20 mM NaCl, 10 mM Imidazole). Resin was added to a gravity column that was allowed to empty through gravity flow. The resin was washed with Wash buffer until no more protein is eluted off the column as determined by Bradford assay. A second wash was performed with Wash buffer containing 300 mM NaCl as in the previous wash step. Bound protein was eluted in 50 mM Hepes pH 7.8, 120 mM KCl, 20 mM NaCl, 250 mM Imidazole. Protein was dialyzed overnight in 50 mM Hepes pH 7.8, 120 mM KCl, 20 mM NaCl and 10% glycerol, with two buffer exchanges. Dialyzed protein was concentrated in a Corning Spin-X concentrator and assayed for activity using the IMAP FP Progressive Screening Expression kit (Molecular Devices, catalog #R8127) following the manufacturer's protocol.
as §1

[2] = recombinant PfPKG, 10 uM ATP, 1 uM cGMP, FAM-PKAtide substrate, read-out: PfPKG (μm)

T1 sequence (Q8I719 whole entry): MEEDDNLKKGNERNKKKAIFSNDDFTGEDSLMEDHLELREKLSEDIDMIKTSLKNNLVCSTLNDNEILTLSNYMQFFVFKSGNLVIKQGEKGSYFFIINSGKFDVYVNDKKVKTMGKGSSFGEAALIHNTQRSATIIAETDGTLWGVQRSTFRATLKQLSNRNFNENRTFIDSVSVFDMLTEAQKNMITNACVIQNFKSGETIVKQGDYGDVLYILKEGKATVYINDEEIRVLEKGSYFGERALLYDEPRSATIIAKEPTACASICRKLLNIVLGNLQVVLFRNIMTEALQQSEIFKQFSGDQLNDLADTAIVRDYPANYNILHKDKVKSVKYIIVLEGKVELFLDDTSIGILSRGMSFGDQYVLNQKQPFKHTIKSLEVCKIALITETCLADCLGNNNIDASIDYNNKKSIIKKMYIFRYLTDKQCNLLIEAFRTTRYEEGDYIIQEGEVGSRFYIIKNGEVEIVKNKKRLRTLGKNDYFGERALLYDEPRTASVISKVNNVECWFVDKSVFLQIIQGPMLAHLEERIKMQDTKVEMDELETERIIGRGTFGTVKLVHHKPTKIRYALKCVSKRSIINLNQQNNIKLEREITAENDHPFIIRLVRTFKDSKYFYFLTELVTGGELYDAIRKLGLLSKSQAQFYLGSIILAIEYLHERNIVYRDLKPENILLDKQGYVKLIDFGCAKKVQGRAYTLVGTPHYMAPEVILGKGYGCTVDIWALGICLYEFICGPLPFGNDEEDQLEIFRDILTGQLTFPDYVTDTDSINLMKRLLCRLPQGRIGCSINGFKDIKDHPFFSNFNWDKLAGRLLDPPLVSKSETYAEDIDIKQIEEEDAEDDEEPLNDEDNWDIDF

Row | Compound | Human PKG (10 μm) (human PKG (hPKG)) | IC50 [1, 2] [µM] | IC50 [1] [µM]
1 | Cc1cc(-c2cc(C3CCN(C)CC3)[nH]c2-c2ccc(F)cc2)ccn1 [Example 4, 4-(2-(4-fluorophenyl)-5-(1-methylpiperidin-4-yl)-1H-pyrrol-3-yl)-2-methylpyridine] | 30 | < 1 | 
2 | CN1C[C@@H]2C(c3cc(-c4ccncc4)c(-c4ccc(F)cc4)[nH]3)[C@@H]2C1 (stereo partly drawn) [Example 26, (1R,5S)-6-(5-(4-fluorophenyl)-4-(pyridin-4-yl)-1H-pyrrol-2-yl)-3-methyl-3-azabicyclo[3.1.0]hexane] | 7 | < 1 | 
3 | CC(O)c1cc(-c2cc(C3CCN(C)CC3)[nH]c2-c2ccc(F)cc2)ccn1 (centres unmarked) [Example 10, 1-(4-(2-(4-fluorophenyl)-5-(1-methylpiperidin-4-yl)-1H-pyrrol-3-yl)pyridin-2-yl)ethan-1-ol] | −4 | < 1 | 
4 | CN1CCC(c2[nH]c(-c3ccc(F)cc3)c(-c3ccncc3)c2C(N)=O)CC1 [Example 19, 5-(4-fluorophenyl)-2-(1-methylpiperidin-4-yl)-4-(pyridin-4-yl)-1H-pyrrole-3-carboxamide] | −8 | < 1 | 
5 | CN1CCC(c2[nH]c(-c3ccc(F)cc3)c(-c3ccncc3)c2Br)CC1 [Example 15, 4-(4-bromo-2-(4-fluorophenyl)-5-(1-methylpiperidin-4-yl)-1H-pyrrol-3-yl)pyridine] | 52 | < 1 | 
6 | CN1CCC(c2[nH]c(-c3ccc(F)cc3)c(-c3ccncc3)c2CO)CC1 [Example 21, (5-(4-fluorophenyl)-2-(1-methylpiperidin-4-yl)-4-(pyridin-4-yl)-1H-pyrrol-3-yl)methanol] | 12 | < 1 | 
7 | Cc1cnccc1-c1cc(C2CCN(C)CC2)[nH]c1-c1ccc(F)cc1 [Example 3, 4-(2-(4-fluorophenyl)-5-(1-methylpiperidin-4-yl)-1H-pyrrol-3-yl)-3-methylpyridine] | 45 | < 1 | 
8 | CN1CCC(c2cc(-c3ccncc3)c(-c3ccc(F)cc3)[nH]2)CC1 [TSP, 4-(2-(4-fluorophenyl)-5-(1-methylpiperidin-4-yl)-1H-pyrrol-3-yl)pyridine, reference compound] | 59 | < 1 | 
9 | CN1CCC(c2cc(-c3ccncc3Br)c(-c3ccc(F)cc3)[nH]2)CC1 [Example 1, 3-bromo-4-(2-(4-fluorophenyl)-5-(1-methylpiperidin-4-yl)-1H-pyrrol-3-yl)pyridine] | 39 | < 1 | 
10 | CNCc1c(C2CCN(C)CC2)[nH]c(-c2ccc(F)cc2)c1-c1ccncc1 [Example 23] | 0 | < 1 | 
11 | CN1CCC(c2cc(-c3ccn4nnnc4c3)c(-c3ccc(F)cc3)[nH]2)CC1 [Example 12, 7-(2-(4-fluorophenyl)-5-(1-methylpiperidin-4-yl)-1H-pyrrol-3-yl)tetrazolo[1,5-a]pyridine] | −35 | < 1 | 
12 | C[C@H]1C[C@H](c2cc(-c3ccncc3)c(-c3ccc(F)cc3)[nH]2)CCN1C (single isomer, unassigned) [Example 30, 4-(5-(trans-1,2-dimethylpiperidin-4-yl)-2-(4-fluorophenyl)-1H-pyrrol-3-yl)pyridine] |  | < 1 | 
13 | CN1CCC(c2cc(-c3ccncc3)c(-c3ccc(F)cc3)n2C)CC1 [Example 14, 4-(2-(4-fluorophenyl)-1-methyl-5-(1-methylpiperidin-4-yl)-1H-pyrrol-3-yl)pyridine] | 14 | < 1 | 
14 | C[C@H]1C[C@@H](c2cc(-c3ccncc3)c(-c3ccc(F)cc3)[nH]2)CCN1C (single isomer, unassigned) [Example 29, 4-(5-(cis-1,2-dimethylpiperidin-4-yl)-2-(4-fluorophenyl)-1H-pyrrol-3-yl)pyridine] | 26 | < 1 | 
15 | CN1CCC(c2cc(-c3ccnc(N)c3)c(-c3ccc(F)cc3)[nH]2)CC1 [Example 7, 4-(2-(4-fluorophenyl)-5-(1-methylpiperidin-4-yl)-1H-pyrrol-3-yl)pyridin-2-amine] | 48 | < 1 | 
16 | CN1CCC(c2cc(-c3ccncc3CO)c(-c3ccc(F)cc3)[nH]2)CC1 [Example 6, (4-(2-(4-fluorophenyl)-5-(1-methylpiperidin-4-yl)-1H-pyrrol-3-yl)pyridin-3-yl)methanol] | −1 | < 1 | 
17 | CC(O)c1c(C2CCN(C)CC2)[nH]c(-c2ccc(F)cc2)c1-c1ccncc1 (centres unmarked) [Example 20, 1-(5-(4-fluorophenyl)-2-(1-methylpiperidin-4-yl)-4-(pyridin-4-yl)-1H-pyrrol-3-yl)ethan-1-ol] | 3 | < 1 | 
18 | CN1CCC(c2cc(-c3ccnc(C(N)=O)c3)c(-c3ccc(F)cc3)[nH]2)CC1 [Example 5, 4-(2-(4-fluorophenyl)-5-(1-methylpiperidin-4-yl)-1H-pyrrol-3-yl)picolinamide] | 28 | < 1 | 
19 | CN1CCC(c2cc(-c3ccncc3C(N)=O)c(-c3ccc(F)cc3)[nH]2)CC1 [Example 13, 4-(2-(4-fluorophenyl)-5-(1-methylpiperidin-4-yl)-1H-pyrrol-3-yl)nicotinamide] | −2 | < 1 | 
20 | CN1CCC(c2cc(-c3ccnc(C#N)c3)c(-c3ccc(F)cc3)[nH]2)CC1 [Example 9, 4-(2-(4-fluorophenyl)-5-(1-methylpiperidin-4-yl)-1H-pyrrol-3-yl)picolinonitrile] | 16 | < 1 | 
21 | C[C@@H]1CN(C)CC[C@@H]1c1cc(-c2ccncc2)c(-c2ccc(F)cc2)[nH]1 (single isomer, unassigned) [Example 31, 4-(5-(cis-1,3-dimethylpiperidin-4-yl)-2-(4-fluorophenyl)-1H-pyrrol-3-yl)pyridine] | 82 |  | < 1
22 | CCc1c(C2CCN(C)CC2)[nH]c(-c2ccc(F)cc2)c1-c1ccncc1 [Example 24, 4-(4-ethyl-2-(4-fluorophenyl)-5-(1-methylpiperidin-4-yl)-1H-pyrrol-3-yl)pyridine] | 43 | < 1 | 
23 | CN1CCC(c2[nH]c(-c3ccc(F)cc3)c(-c3ccncc3)c2CS(C)(=O)=O)CC1 [Example 25, 4-(2-(4-fluorophenyl)-5-(1-methylpiperidin-4-yl)-4-((methylsulfonyl)methyl)-1H-pyrrol-3-yl)pyridine] | 17 | < 1 | 
24 | COc1ccc(-c2[nH]c(C3CCN(C)CC3)cc2-c2ccncc2)cc1 [Example 34, 4-(2-(4-methoxyphenyl)-5-(1-methylpiperidin-4-yl)-1H-pyrrol-3-yl)pyridine] | 38 | < 1 | 
